Assays:
[1] = test system: embryonic stem cells (ESCs); conditions: ascorbic acid 0.01 mM; other antioxidants compared; Takahashi et al 2003; cited from earlier work
porcine mixed MSCs = experiment: Cardio differentiation (myotube formation) of mixed MSCs by differentiation agents; format: cell-based; conditions: 4 weeks of culture, 5-azacytidine 3 μM, ascorbic acid 1 mM
Experimental: Porcine bone marrow mononucleated cells were purified according to a protocol described by Haynesworth et al (Haynesworth et al., (1992) Bone 13(1), 81-8). Briefly, bone marrows from posterior iliac crest bones of three 6-8 months old Lee-Sung miniature pigs (Luh et al., (2000) Transplantation 69(10), 2019-2027) ([…]) were aspirated into syringes that contained 6,000 unit heparin. The marrow samples were diluted in a ratio of 1:1 with HBSS (Gibco) and loaded onto 1.073 g/mL Ficoll solution (Amersham) in 50 mL centrifugations tubes and were centrifuged at 2,000 rpm for 40 min at room temperature. The mononucleated cells were collected from upper and interface layers, and washed with HBSS (Gibco) twice. Subsequently, the cells were cultured in αMEM (Hyclone) medium containing 100 unit/ml penicillin, 100 μg/ml streptomycin (Gibco) and 20% fetal bovine serum (FBS) from a selected lot (Gibco, Lot No.: 1149239) at 37° C. in humid air with 5% CO2. After a series of continuously cultures, the non-adhesive cells were removed by medium change. Porcine mixed mesenchymal stem cells (MSCs) thus obtained may be used directly in the differentiation experiment of example 1.3 and can be successfully propagated for at least 2 months. […]

[2] = background statement; cited from earlier work
[3] = test system: cardiac troponin I in fast growing BMSC clones; experiment: Western blot of cardiac troponin I and connexin43; format: cell-based, porcine; conditions: fast growing BMSC clone No. 1 treated with ascorbic acid
Experimental: (§1) The effect of ascorbic acid on the expression of myogenic associated genes and proteins were examined by Reverse-transcription polymerase chain reaction (RT-PCR) (FIG. 5) and western blot (FIG. 6), respectively.
Western Blot Total protein from the differentiated MSCs were extracted with cell lysis buffer (Pierce) containing 1× protease inhibitor cocktail (Roche). Protein concentration was determined by a Bio-Rad protein assay kit. Samples were boiled for 5 minutes and then subjected to 12.5% polyacrylamide gel electrophoresis. Proteins in gel were electrophoretically transferred to polyvinylidene diflouride membrane (PVDF, Millipore) at 4° C. for overnight in 25 mM Tris, 190 mM glycine (pH 8.3) containing 0.01% SDS and 10% methanol. The membrane was blocked with 5% non-fat milk to prevent nonspecific binding and then incubated with one of […] primary antibodies. Subsequently, the membrane was stained with primary antibodies that were against cardiac troponin I (at a dilution of 1:1000) and connexin43 (at a dilution of 1:2000) (Chemicon) (Makino et al., (1999) J. Clin. Invest. 103(5), 697-705), respectively, for 1 hour at room temperature. […] Bound antibodies were recognized by horseradish peroxidase-conjugated goat anti-mouse IgG and ECL reagent (Pierce), and detected by chemiluminescent detection.

[4] = test system: single BMSCs clones (fast-growing and slow-growing) and mixed MSCs; experiment: Cardiogenic potential of mixed MSCs and single BMSCs clones under ascorbic acid; format: cell-based, porcine; conditions: 4 weeks
Experimental: The porcine mixed MSCs of example 1.1 were collected from upper and interface layers, and then seeded at limited dilution into culture. Briefly, 1×10^4 mononucleated cells were plated in each well of a 96-multiwell plate, washed with HBSS (Gibco) twice, and then cultured in αMEM (Hyclone) containing 20% FBS from selected lots at 37° C. in humid air with 5% CO2. Non-adhesive cells were removed by medium change and the number of the remaining cells attached to the bottom of culture wells was examined under the microscope. Clones from wells containing only a single cell attached were chosen for further study. The isolated cells were further cultured for 3 passages, and then frozen in liquid nitrogen until the differentiation studies.
For selecting the fast-growing single BMSCs clones, the nucleated cells were seeded onto 1,000 wells following limited dilution in culture (10^4 cells/well), and 120 clones, each of which was derived from a single attached cell in the well, were obtained. Morphologically, all of the clones comprised a relatively homogeneous population of fibroblast-like cells at subconfluence, while at confluence the cells appeared more polygonal and formed a tight packed monolayer.
To examine the cardiogenic potential of single BMSCs clones, mixed MSCs of example 1.1 and isolated single BMSCs clones of example 1.2 (both fast-growing clones of clones 1-4 and slow-growing clones of clones 5-8) were cultured in the presence of 1 mM ascorbic acid for 4 weeks, and one representative result was illustrated in FIG. 3. Before ascorbic acid treatment, there were no differences in terms of morphology among mixed population of MSCs (FIG. 3A), fast-growing clone No. 1 (FIG. 3B) and slow-growing clone No. 8 (FIG. 3C), respectively.

[5] = test system: myogenic associated genes in MSCs; experiment: RT-PCR of myogenic associated genes; format: cell-based, porcine
Experimental: as §1
RT-PCR Total RNA was extracted from differentiated MSCs using a RNA mini Kit (e.g., QIAGEN). Subsequently, cDNA was synthesized from 1 μg of extracted total RNA using a ThermoScript RT-PCR kit (Invitrogen). The PCR reaction was carried out with Taq DNA polymerase (Invitrogen). Reverse-transcription polymerase chain reaction (RT-PCR) of myogenic associated genes, including actin, alpha 1, skeletal muscle (ACTA), actin, alpha, cardiac muscle (ACTC) (Kubalak et al., (1994) J. Biol. Chem. 269(24), 16961-16970), mef-2c, mef-2d (Skerjanc et al., (1998) J. Biol. Chem. 273(52), 34904-34910), myogenin (Wright et al., (1989) Cell 56(4), 607-617), nkx2.5 (Lints et al., (1993) […]) and tef-1 (Chen et al., (1994) Genes Dev 8(19), 2293-2301), were performed on the differentiated cell samples (Table 1). The relative expression level of glyceraldehyde 3-phosphate dehydrogenase (GAPDH) was used as an internal control for each sample, and porcine heart and skeletal muscle cells were used as a positive control of differentiation pathway. A spectrophotometer (Amersham Bioscience) and Agilent 2100 Bioanalyzer (Agilent Technologies) were used to measure the total RNA of concentration and integrity, respectively. Results were illustrated in FIG. 5.

differentiated MSCs = experiment: Myotube formation detected by immunohistochemistry (phallacidin / propidium iodide staining); format: cell-based, porcine; conditions: differentiated MSCs after ascorbic acid induction, confocal microscopy
Experimental: To further verify the myotube formation by ascorbic acid induction, the differentiated MSCs were stained with fluorescent phallacidin, which binds to F-actin, to reveal the formed myofibrils under phase contrast microscope (FIG. 4A) and fluorescence microscope (FIGS. 4B, 4C, and 4D), respectively. Briefly, the differentiated MSCs were washed three times with PBS for 3 minutes and the cells were then fixed with 4% paraformaldehyde for 15 min, and normalized with 0.1M glycine for 5 min, and permeabilized with 0.1% Tween 20 for 1 min. The myotube formation was confirmed by treating with alexa flour 488-conjugate phallacidin (Molecular Probes) for 20 min at room temperature. The cells were then washed two or more times with PBS. The multi-nucleate myotubes were stained by propidium iodide (Sigma) for 5 min at room temperature. After washing, they were mounted and observed under confocal laser scanning microscopy, and the multinucleated myotubes, which are one of the characteristics of fused myogenic cells, were detectable by propidium iodide staining (FIGS. 4B, 4C, and 4D).

[6] = MSCs after ascorbic acid treatment
[7] = over the course of differentiation

O=S(=O)(O)c1cc(O)c(O)c(S(=O)(=O)O)c1 [Tiron]
induction of differentiation of ESCs into cardiomyocytes [1]: not mimicked

CC(=O)N[C@@H](CS)C(=O)O [N-acetylcysteine]
induction of differentiation of ESCs into cardiomyocytes [1]: not mimicked

Nc1ncn([C@@H]2O[C@H](CO)[C@@H](O)[C@H]2O)c(=O)n1 [5-azacytidine]
differentiation rate (formation of myotubes) (porcine mixed MSCs): about 10%
cytotoxicity [2]: cytotoxic

vitamin E
induction of differentiation of ESCs into cardiomyocytes [1]: not mimicked

O=C1O[C@H]([C@@H](O)CO)C(O)=C1O [ascorbic acid]
expression of cardiac troponin I protein [3]: expression of a heart specific protein, i.e., cardiac troponin 1
morphology after ascorbic acid treatment ([4]; fast-growing clone No. 1, 1 mM ascorbic acid): started to form myotube-like structures from the third week
morphology after ascorbic acid treatment ([4]; mixed MSCs, 1 mM ascorbic acid): started to form myotube-like structures from the third week
morphology after ascorbic acid treatment ([4]; slow-growing clone No. 8, 1 mM ascorbic acid): retained a fibroblast-like morphology after 4 weeks
differentiation rate (formation of myotubes) (porcine mixed MSCs): ~25%
induction of differentiation of ESCs into cardiomyocytes [1]: induction of differentiation of ESCs into cardiomyocytes
expression of ACTA gene [5, 6]: increased significantly
expression of mef-2d gene [5, 6]: increased significantly
expression of myogenin gene [5, 6]: increased significantly
expression of ACTC gene [5, 7]: no significant change
expression of mef-2c gene [5, 7]: no significant change
expression of nkx2.5 gene [5, 7]: no significant change
multinucleated myotubes by propidium iodide staining (differentiated MSCs): detectable

Reference: patent US7534607B1, “Method of producing cardiomyocytes from mesenchymal stem cells” (Industrial Technology Research Institute, priority 2005, dated 2009)
